According to patent publication US20060058320A1, “[1,2,4] Triazolo[1,5-c]pyrimidine derivatives” (KYOWA HAKKO KOGYO CO., LTD., priority 2002, published 2006):
Read-outs that look alike come from different tables or passages of the source.

How the values were obtained:
[1] = test system: common marmoset treated with 1-methyl-4-phenyl-1,2,3,6-tetrahydropyridine (MPTP); assay: Parkinson's disease model, MPTP-treated common marmoset; type: in vivo; conditions: symptom score and spontaneous locomotor activity versus solvent-administered group
Procedure: Parkinson's disease is a disease based on the degeneration and cell death of the nigrostriatal dopaminergic neurons. […] These MPTP-treated primates are known as a model of Parkinson's disease [Proceedings of the National Academy of Science USA, vol. 80, p. 4546 (1983)]. […] 57, p. 37 (1985)].
The test was carried out using 4 female and male common marmosets of 2 to 3 year age (300 to 375 g in body weight, Japan CLEA) per group. MPTP (produced by RBI Co.) was dissolved in physiological saline for injection (produced by Otsuka Pharmaceutical Co., Ltd.), and hypodermically administered to the common marmosets once a day for 5 days in a dose of 2.0 mg/kg. Six weeks or more after the administration, animals showing chronic symptoms of Parkinson's disease were used in the test. Each test compound was used by suspending it in an aqueous solution containing 0.3% Tween 80 and 10% sucrose. Also, a solution containing no test compound was used as a control. One hour before the administration of the test compound, the animals to be tested were put into an observation cage (provided with a spontaneous locomotor activity measuring apparatus) to adapt them to the environment. The symptoms of Parkinson's disease were observed from a one-way see through window at intervals of 30 minutes for 8 hours to score the motor disability. The spontaneous locomotor activity was measured at intervals of 30 minutes for 12 hours by a computer-controlled automatic measuring apparatus. The symptoms of Parkinson's disease were decided on the basis of the criteria of each observation item shown below, and the total of the points was used as the score of each animal.
The effect was decided by comparing average scores of the symptoms of Parkinson's disease in 4 animals per group between the test compound-administered group and the solvent-administered group (significance test: Sign-Wilcoxon test). The spontaneous locomotor activity was also decided by comparison between the test compound-administered group and the solvent-administered group.

male SD rats = assay: Learned helplessness (LH) model; type: in vivo
Procedure: As test animals, 10 to 15 male SD rats (220 to 320 g in body weight, 7 week age, Charles River Japan, Inc., Atsugi) per group were used. During the preliminary feeding period, the animals were bred to be allowed to freely have feed (CRF-1; Oriental Yeast Co., Ltd, Tokyo) and water (tap water) in an animal room at a room temperature of 22 to 24° C. and a humidity of 50 to 60%. Each test compound was orally administered in a dose of 2 mg/kg 1 hour before RF1 (refer to the contents described below) on the second day of the test.
A shuttle box apparatus (TK-401S; produced by UNICOM, Chiba) was used as a learning experimental apparatus. On the first day, the shuttle box was divided into two rooms by setting a partition at its center, and one rat was put in each of the rooms. […] Although each rat was put in the shuttle box for 50 minutes, the charging time of inescapable shock (IES) was set to 25 minutes by computer control using a random duration time (10 to 90 seconds) and random on-off and off-on (10 to 90 seconds).
On the second day, a shuttle box test was carried out by the method of Maier [J. Comp. Physiol. Psychol., vol. 85, pp. 581-592 (1973)] and the method of Geoffroy and Christensen [Drug Dev. Res., vol. 29, pp. 48-55 (1993)] which were slightly modified. The partition at the center of the shuttle box was removed, and the box was divided into two rooms by a hurdle of 2 cm in height instead of the partition. In the shuttle box test, FRI (an electric shock of 0.6 mA was applied to the rat for 5 seconds unless the rat moved to the other room within 5 seconds after the start of buzzer sounds, and when the rat moved to the other room within 5 seconds after the start of buzzer sounds, the floor shock could be avoided, this operation being carried as one trial and repeated 15 times with an interval of 10 seconds between trials.) was carried out, continuously followed by FR2 (an electric shock of 0.6 mA was applied to the rat for 10 seconds, and then an electric shock of 0.6 mA was applied at intervals of 0.5 second for 10 seconds, this operation being carried out as one trial and repeated 15 times with an interval of 15 seconds between trials). Escape reaction was determined by the escape response calculated by the equation below on the assumption that cases showing two escape latency times of less than 10 seconds in FR2 were regarded as successful escape. Escape response (%)=(Number of trials of successful escape/15)×100
Furthermore, migration (intertrial response %) in the box other than the escape reaction observed during a period between trials (resting time) was used as an index of psychomotor stimulant action, the intertrial response being calculated by the following equation. […]

male ddY mice = assay: Forced swimming method (measurement of immobility time); type: in vivo; conditions: orally administered, 10 mg/kg, one hour before the test; versus solvent group (Steel-test)
Procedure: Ten male ddY mice (21 to 26 g in body weight, Japan SLC) per group were used as test animals. During the preliminary feeding period, the animals were bred to be allowed to freely have feed (CRF-1; Oriental Yeast Co., Ltd, Tokyo) and water (tap water) in an animal room at a room temperature for 23±1° C. and a humidity of 55±5%.
Animals showing abnormal reactions in terms of spontaneous activity, myotonia, eyesight and the like were previously excluded. Each test compound was suspended in a 0.3% Tween 80 solution and orally administered one hour before the test. In the negative control group, 10 mL/kg of a 0.3% Tween 80 solution alone was orally administered. The immobility time was measured according to the Porsolt method [Arch. Int. Pharmacodyn., vol. 229, pp. 327-336 (1977)]. Namely, a cylindrical transparent acrylic water tank (10 cm in diameter and 25 cm in height) was filled with water at a temperature between 23±1° C. to a height of 9 cm, and the mice were forced to swim for 6 minutes. When the mice are put into water, they immediately start to swim trying to escape from the tank, but the motion gradually decreases 1 to 2 minutes thereafter. […] In order to reduce the effects of daily rhythm, the test was carried out using 5 of the 10 animals per group in the morning, and the remaining 5 animals in the afternoon. The immobility time was measured by observing 2 animals at the same time without telling the observers distinctions about the control group administered with the solvent alone and doses of the test compounds. Statistical analysis of the results was carried out by a multiple comparison Steel-test between the solvent-administered group and the test compound-administered group.

adenosine A2A receptor = molecular target: T1, adenosine A2A receptor (Rattus norvegicus, UniProt P30543); assay: Adenosine A2A receptor binding test (3H-CGS 21680 binding); conditions: read-out: A2A Receptor inhibition rate (%) at 10^−7 mol/L
T1 construct: from tissue; host or cells: rat corpus striatum membrane preparation
T1 sequence (P30543 whole entry): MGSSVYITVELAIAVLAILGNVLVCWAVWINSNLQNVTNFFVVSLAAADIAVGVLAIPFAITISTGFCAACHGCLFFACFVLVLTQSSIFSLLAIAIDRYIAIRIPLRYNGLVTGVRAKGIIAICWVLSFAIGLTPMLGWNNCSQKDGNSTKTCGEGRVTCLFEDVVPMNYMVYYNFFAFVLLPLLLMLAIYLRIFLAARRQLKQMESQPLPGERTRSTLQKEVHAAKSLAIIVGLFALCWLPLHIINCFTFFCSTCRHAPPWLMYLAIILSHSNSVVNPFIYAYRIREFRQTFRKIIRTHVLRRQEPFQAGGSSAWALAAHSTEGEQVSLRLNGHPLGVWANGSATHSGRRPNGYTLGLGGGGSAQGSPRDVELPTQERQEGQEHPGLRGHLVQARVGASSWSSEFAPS

[2] = test system: CGS 21680-induced catalepsy; assay: Activity on CGS 21680-induced catalepsy; type: in vivo, mice; conditions: for inhibition in vivo at 10 mg/kg: Mus musculus, po, read-out: Remission ratio (%); for Total score: total catalepsy score of 10 mice (maximum 50 points; 40 points or less = positive), one hour after administration
How it was run: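 Male ddY mice, 5 weeks old, ten per group, were dosed orally with compound at 10 mg/kg in 0.3% Tween 80 water, 30 min before CGS 21680 (10 μg/20 μL) was injected into the cerebral ventricle. Catalepsy was scored 1 h after compound dosing by placing forelimbs or hindlimbs on a 4.5 cm stand.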

[3] = test compound 10^−7 mol/L, 3H-CGS 21680 binding, rat corpus striatum

SMILES	effect in the common marmoset MPTP-treated Parkinson's disease model [1]	escape response (male SD rats; IES-loaded rats, 2 mg/kg orally 1 hour before FR1)	intertrial responses (index of psychomotor stimulant action) (male SD rats; versus electric shock loaded control group, 2 mg/kg orally)	immobility time (male ddY mice)	inhibition at 0.1 µM (adenosine A2A receptor; [3]) [%]	inhibition in vivo at 10 mg/kg [2] [%]	Total score ([2]; 10 mg/kg orally)	inhibition at 0.1 µM (adenosine A2A receptor) [%]	inhibition in vivo at 10 mg/kg ([2]; from total score of test group and control group, 10 mg/kg orally) [%]
Nc1nc(C2CCN(CC3CC3)CC2)cc2nc(-c3ccco3)nn12 [Compound 71, 5-Amino-7-[1-(cyclopropylmethyl)piperidin-4-yl]-2-(2-furyl)-[1,2,4]triazolo[1,5-c]pyrimidine]	effective	significantly recover a reduced escape response	no difference	significant effect of decreasing the immobility time	87				
CC(C)(O)CCN1CC=C(c2cc3nc(-c4ccco4)nn3c(N)n2)CC1 [Compound 76, 5-Amino-7-[1-(3-methyl-3-hydroxybutyl)-1,2,3,6-tetrahydro-pyridin-4-yl]-2-(2-furyl)[1,2,4]triazolo[1,5-c]pyrimidine]	effective					80	5	72	
CN(CCc1ccccn1)C(=O)c1cc2nc(-c3ccco3)nn2c(N)n1 [Compound 85, 5-Amino-2-(2-furyl)[1,2,4]triazolo[1,5-c]pyrimidine-7-carboxylic acid {N-[2-(2-pyridyl)ethyl]-N-methyl}amide]	effective				70		3		94
